Numbers after ± are expanded uncertainties.
Experiment: activity coefficient (dimensionless); of the first substance listed, at infinite dilution; xn = mol fraction of the nth substance listed
Conditions: Liquid, Chromatography, x1 = 0

CC(C)CO [2-methyl-1-propanol] + CCCCn1cc[n+](C)c1.F[B-](F)(F)F
activity coefficient (303.15 K): 2.63 ± 0.23 | activity coefficient (313.15 K): 2.22 ± 0.19 | activity coefficient (323.15 K): 1.86 ± 0.16 | activity coefficient (333.15 K): 1.66 ± 0.14 | activity coefficient (343.15 K): 1.53 ± 0.13

CCCCO [butan-1-ol] + CCCCn1cc[n+](C)c1.F[B-](F)(F)F
activity coefficient (303.15 K): 4.14 ± 0.36 | activity coefficient (313.15 K): 3.67 ± 0.32 | activity coefficient (323.15 K): 3.3 ± 0.28 | activity coefficient (333.15 K): 2.98 ± 0.26 | activity coefficient (343.15 K): 2.72 ± 0.23

CCO [ethanol] + CCCCn1cc[n+](C)c1.F[B-](F)(F)F
activity coefficient (303.15 K): 1.59 ± 0.14 | activity coefficient (313.15 K): 1.39 ± 0.12 | activity coefficient (323.15 K): 1.27 ± 0.11 | activity coefficient (333.15 K): 1.17 ± 0.097 | activity coefficient (343.15 K): 1.07 ± 0.088

CCCO [propan-1-ol] + CCCCn1cc[n+](C)c1.F[B-](F)(F)F
activity coefficient (303.15 K): 2.8 ± 0.24 | activity coefficient (313.15 K): 2.48 ± 0.21 | activity coefficient (323.15 K): 2.23 ± 0.19 | activity coefficient (333.15 K): 1.96 ± 0.17 | activity coefficient (343.15 K): 1.64 ± 0.14

ClC(Cl)(Cl)Cl [tetrachloromethane] + CCCCn1cc[n+](C)c1.F[B-](F)(F)F
activity coefficient (303.15 K): 5.73 ± 0.49 | activity coefficient (313.15 K): 6.09 ± 0.53 | activity coefficient (323.15 K): 6.27 ± 0.54 | activity coefficient (333.15 K): 6.42 ± 0.55 | activity coefficient (343.15 K): 6.52 ± 0.56

ClC(Cl)Cl [trichloromethane] + CCCCn1cc[n+](C)c1.F[B-](F)(F)F
activity coefficient (303.15 K): 1.11 ± 0.092 | activity coefficient (313.15 K): 1.21 ± 0.1 | activity coefficient (323.15 K): 1.28 ± 0.11 | activity coefficient (333.15 K): 1.36 ± 0.11 | activity coefficient (343.15 K): 1.43 ± 0.12

CCC(C)O (stereo not given) [butan-2-ol] + CCCCn1cc[n+](C)c1.F[B-](F)(F)F
activity coefficient (303.15 K): 3.85 ± 0.33 | activity coefficient (313.15 K): 3.44 ± 0.3 | activity coefficient (323.15 K): 3.12 ± 0.27 | activity coefficient (333.15 K): 2.79 ± 0.24 | activity coefficient (343.15 K): 2.56 ± 0.22

CO [methanol] + CCCCn1cc[n+](C)c1.F[B-](F)(F)F
activity coefficient (303.15 K): 0.813 ± 0.068 | activity coefficient (313.15 K): 0.716 ± 0.061 | activity coefficient (323.15 K): 0.646 ± 0.056 | activity coefficient (333.15 K): 0.596 ± 0.053 | activity coefficient (343.15 K): 0.529 ± 0.048

ClCCl [dichloromethane] + CCCCn1cc[n+](C)c1.F[B-](F)(F)F
activity coefficient (303.15 K): 1.1 ± 0.091 | activity coefficient (313.15 K): 1.15 ± 0.095 | activity coefficient (323.15 K): 1.2 ± 0.099 | activity coefficient (333.15 K): 1.24 ± 0.1 | activity coefficient (343.15 K): 1.28 ± 0.11

CCCCCO [pentan-1-ol] + CCCCn1cc[n+](C)c1.F[B-](F)(F)F
activity coefficient (303.15 K): 6.96 ± 0.6 | activity coefficient (313.15 K): 5.91 ± 0.51 | activity coefficient (323.15 K): 5.15 ± 0.45 | activity coefficient (333.15 K): 4.56 ± 0.39 | activity coefficient (343.15 K): 4 ± 0.34

O=C1CCCCC1 [cyclohexanone] + CCCCn1cc[n+](C)c1.F[B-](F)(F)F
activity coefficient (323.15 K): 2.64 ± 0.23 | activity coefficient (333.15 K): 2.62 ± 0.23 | activity coefficient (343.15 K): 2.61 ± 0.23 | activity coefficient (353.15 K): 2.58 ± 0.22 | activity coefficient (363.15 K): 2.57 ± 0.22

CC#N [acetonitrile] + CCCCn1cc[n+](C)c1.F[B-](F)(F)F
activity coefficient (303.15 K): 0.734 ± 0.062 | activity coefficient (313.15 K): 0.742 ± 0.063 | activity coefficient (323.15 K): 0.752 ± 0.063 | activity coefficient (333.15 K): 0.757 ± 0.064 | activity coefficient (343.15 K): 0.768 ± 0.065

CC(C)=O [acetone] + CCCCn1cc[n+](C)c1.F[B-](F)(F)F
activity coefficient (303.15 K): 1.16 ± 0.096 | activity coefficient (313.15 K): 1.19 ± 0.098 | activity coefficient (323.15 K): 1.21 ± 0.1 | activity coefficient (333.15 K): 1.23 ± 0.1 | activity coefficient (343.15 K): 1.25 ± 0.1

CC(C)O [propan-2-ol] + CCCCn1cc[n+](C)c1.F[B-](F)(F)F
activity coefficient (303.15 K): 2.63 ± 0.23 | activity coefficient (313.15 K): 2.22 ± 0.19 | activity coefficient (323.15 K): 1.86 ± 0.16 | activity coefficient (333.15 K): 1.66 ± 0.14 | activity coefficient (343.15 K): 1.53 ± 0.13

CCOC(C)=O [ethyl acetate] + CCCCn1cc[n+](C)c1.F[B-](F)(F)F
activity coefficient (303.15 K): 3.3 ± 0.28 | activity coefficient (313.15 K): 3.34 ± 0.29 | activity coefficient (323.15 K): 3.36 ± 0.29 | activity coefficient (333.15 K): 3.39 ± 0.29 | activity coefficient (343.15 K): 3.41 ± 0.29

C1COCCO1 [1,4-dioxane] + CCCCn1cc[n+](C)c1.F[B-](F)(F)F
activity coefficient (303.15 K): 1.53 ± 0.13 | activity coefficient (313.15 K): 1.54 ± 0.13 | activity coefficient (323.15 K): 1.55 ± 0.13 | activity coefficient (333.15 K): 1.56 ± 0.13 | activity coefficient (343.15 K): 1.57 ± 0.13

CC(C)CCO [3-methylbutan-1-ol] + CCCCn1cc[n+](C)c1.F[B-](F)(F)F
activity coefficient (303.15 K): 6.63 ± 0.57 | activity coefficient (313.15 K): 5.74 ± 0.49 | activity coefficient (323.15 K): 5.08 ± 0.44 | activity coefficient (333.15 K): 4.53 ± 0.39 | activity coefficient (343.15 K): 4.08 ± 0.35
